The source of these data is DBAASP.

Values after ≈ are worked out from the molar mass of the structure shown.

Experiment in all cases: ≥ marks a high value that may be exact or a test limit, other limits are often not marked, values filed in µg/mL are converted to µM
The test system of assay [1] is Staphylococcus aureus VRSA2.
Assay [2] has as its system Micrococcus luteus ATCC 10240.
The subject of assay [3] is Klebsiella pneumoniae NCIMB 9111.
Assay [4] deals with Staphylococcus aureus ATCC 25923.
The test system of assay [5] is Candida albicans ATCC 10259.
The test system of assay [6] is Candida albicans ATCC 24433.
Assay [7] deals with Staphylococcus aureus VRSA1.
The test system of assay [8] is Enterococcus faecium BCRC 15B0132.
For assay [9], the system named is Pseudomonas aeruginosa ATCC 27853.
Assay [10] relates to Staphylococcus aureus VISA3.
In assay [11] the test system is Staphylococcus aureus VISA1.
Assay [12] has as its system Enterococcus faecalis ATCC 29212.
In assay [13] the test system is Staphylococcus epidermidis ATCC 12228.
For assay [14], the system named is Escherichia coli ATCC 27325.
The subject of assay [15] is Escherichia coli ATCC 25922.
Assay [16] concerns Streptococcus mutans NCTC 10449.
Assay [17] relates to Enterococcus faecalis NCTC 12697.
Assay [18] relates to Lactobacillus acidophilus NCTC 1723.
Assay [19] relates to Pseudomonas aeruginosa ATCC 15692.
The subject of assay [20] is Escherichia coli ATCC 25726.
Assay [21] deals with Stenotrophomonas maltophilia B32/4.
Assay [22] concerns Candida albicans ATCC 90028.
For assay [23], the system named is Staphylococcus epidermidis RP62A/1.
Assay [24] has as its system Acinetobacter baumannii NM8.
Assay [25] deals with Staphylococcus epidermidis RP62A.
Assay [26] relates to Klebsiella pneumoniae ATCC 700603.
The subject of assay [27] is Pseudomonas putida ATCC 17426.
In assay [28] the test system is Bacillus subtilis ATCC 62037.
Assay [29] deals with Staphylococcus aureus ATCC 15752.
Assay [30] has as its system Salmonella enterica subsp. enterica serovar Enteritidis ATCC 13076.
Assay [31] deals with Candida albicans ATCC 10231.
Assay [32] deals with Streptococcus mutans ATCC 25175.
Assay [33] concerns Cryptococcus neoformans ATCC 34881.
For assay [34], the system named is Saccharomyces cerevisiae ATCC 44774.
The subject of assay [35] is Pasteurella multocida ATCC 6529.
Assay [36] deals with Salmonella enterica subsp. enterica serovar Choleraesuis CVCC 2140.
The subject of assay [37] is Bacillus cereus ATCC 9193.
Another assay relates to Escherichia coli BL21.
The subject of assay [38] is Staphylococcus aureus ATCC 29213.

Take `CC(=O)N[C@@H](C)C(=O)N[C@@H](CCCCN)C(=O)N[C@@H](CCCN=C(N)N)C(=O)N[C@@H](Cc1cnc[nH]1)C(=O)N[C@@H](Cc1cnc[nH]1)C(=O)NCC(=O)N[C@@H](Cc1ccc(O)cc1)C(=O)N[C@@H](CCCCN)C(=O)N[C@@H](CCCN=C(N)N)C(=O)N[C@@H](CCCCN)C(=O)N[C@@H](Cc1ccccc1)C(=O)N[C@@H](Cc1cnc[nH]1)C(N)=O` [AKRHHGYKRKFH]: the MIC in assay [1] is at least 40.9 µM; in [2], at least 47.9 µM; in assay [3], at least 320 µM; in assay [4] it was 20.8 µM (≈ 33.4 µg/mL); in assay [5], at least 47.9 µM; in [6], at least 47.9 µM. Further, the MIC in assay [7] was at least 40.9 µM; in [8], at least 40.9 µM; in [9] it was 320 µM (≈ 513 µg/mL); in assay [10], at least 40.9 µM; in assay [11], at least 40.9 µM; in assay [12], 10.2 µM (≈ 16.4 µg/mL). This molecule also showed an MIC in assay [13] of 20.8 µM (≈ 33.4 µg/mL).
Turning to `CC[C@H](C)[C@H](NC(=O)[C@H](CO)NC(=O)[C@H](CC(N)=O)NC(=O)[C@H](CC(C)C)NC(=O)[C@H](Cc1ccc(O)cc1)NC(=O)[C@H](CCCCN)NC(=O)[C@H](CCCCN)NC(=O)[C@@H](NC(=O)[C@H](C)NC(=O)[C@H](CCSC)NC(=O)[C@H](CCC(N)=O)NC(=O)[C@H](CCCCN)NC(=O)[C@H](CCCN=C(N)N)NC(=O)[C@H](CC(C)C)NC(=O)[C@H](CCCN=C(N)N)NC(=O)[C@@H](NC(=O)[C@H](Cc1ccc(O)cc1)NC(=O)[C@H](CC(N)=O)NC(=O)[C@H](CC(=O)O)NC(=O)[C@@H](NC(=O)[C@H](Cc1ccccc1)NC(=O)[C@@H](NC(=O)[C@H](C)NC(=O)[C@H](CC(=O)O)NC(=O)[C@H](CO)NC(=O)[C@@H](N)Cc1cnc[nH]1)C(C)C)[C@@H](C)O)[C@@H](C)O)C(C)C)C(=O)N[C@@H](CC(C)C)C(=O)N[C@@H](CC(N)=O)C(N)=O` [HSDAVFTDNYTRLRKQMAVKKYLNSILN], the MIC was at least 150 µM in assay [14]; 1.56 µM (≈ 5.2 µg/mL) in assay [15]; at least 45.3 µM in assay [16]; at least 150 µM in [17]; over 150 µM in assay [4]; at least 150 µM in assay [18]. The MIC in assay [19] is at least 75.1 µM; in assay [9], 1.23 µM (≈ 4.1 µg/mL).
As for `CC[C@H](C)[C@H](N)C(=O)N[C@@H](CC(C)C)C(=O)NCC(=O)N[C@@H](C)C(=O)N[C@H](C(=O)N[C@@H](CC(C)C)C(=O)N1CCC[C@H]1C(=O)N[C@@H](CC(C)C)C(=O)N[C@H](C(=O)N[C@@H](CO)C(=O)NCC(=O)N[C@@H](CC(C)C)C(=O)N[C@@H](CC(C)C)C(=O)N[C@@H](CO)C(=O)N[C@@H](CC(N)=O)C(=O)N[C@@H](CCCCN)C(=O)N[C@@H](CC(C)C)C(N)=O)C(C)C)[C@@H](C)CC` [ILGAILPLVSGLLSNKL], the MIC in [20] is at least 256 µM; in assay [21], at least 256 µM; in assay [22], at least 64 µM; in assay [23], at least 128 µM; in assay [4] it was 128 µM (≈ 220 µg/mL); in assay [24], at least 128 µM. Further, the figures for the MIC in [25], in assay [9] and in assay [26] were at least 128 µM, over 256 µM and over 256 µM, respectively.
With `CC[C@H](C)[C@H](NC(=O)[C@@H]1CCCN1C(=O)[C@H](Cc1c[nH]c2ccccc12)NC(=O)[C@H](CCC(N)=O)NC(=O)[C@H](CCCCN)NC(=O)[C@@H](NC(=O)[C@@H](NC(=O)[C@@H](N)CCCCN)C(C)C)C(C)C)C(=O)NCC(=O)N[C@@H](CCCCN)C(=O)N[C@H](C(=O)N[C@H](C(=O)N[C@@H](CCCCN)C(=O)N[C@@H](CCCCN)C(=O)N[C@H](C(=O)N[C@H](C(=O)N[C@@H](CCCCN)C(=O)N[C@@H](CCCCN)C(=O)N[C@H](C(=O)N[C@H](C(=O)N[C@@H](CCCCN)C(=O)O)C(C)C)C(C)C)C(C)C)C(C)C)C(C)C)C(C)C` [KVVKQWPIGKVVKKVVKKVVK], the MIC in assay [14] turned out to be 0.827 µM (≈ 2 µg/mL); in [27], 0.413 µM (≈ 1 µg/mL); in assay [28], 0.827 µM (≈ 2 µg/mL); in assay [29] it was 0.413 µM (≈ 1 µg/mL); in assay [30], 0.827 µM (≈ 2 µg/mL); in assay [31], 0.413 µM (≈ 1 µg/mL). In addition, the MIC in [32], in [33] and in assay [34] was 0.827 µM (≈ 2 µg/mL) throughout.
On to `CC(C)C[C@@H]1NC(=O)CNC(=O)CNC(=O)[C@H](Cc2cnc[nH]2)NC(=O)[C@@H]2CSSC[C@@H]3NC(=O)[C@H](Cc4ccccc4)NC(=O)[C@H](CC(N)=O)NC(=O)CNC(=O)[C@H](CCC(N)=O)NC(=O)[C@H](CO)NC(=O)[C@H](CCCN=C(N)N)NC(=O)[C@@H](NC(=O)[C@H](C)NC(=O)[C@H](C)NC(=O)[C@@H](NC(=O)[C@H](CC(=O)O)NC(=O)[C@H](C)NC(=O)[C@H](Cc4ccccc4)NC(=O)[C@@H]4CCCN4C(=O)[C@H](C)NC(=O)[C@H](CC(=O)O)NC(=O)[C@H](C)NC(=O)[C@H](CO)NC(=O)CNC(=O)[C@@H]4CCCN4C(=O)[C@H](C)NC(=O)[C@H](C)NC(=O)[C@H](CCC(N)=O)NC(=O)[C@H](Cc4ccccc4)NC(=O)[C@H](CC(C)C)NC(=O)[C@H](Cc4ccccc4)NC(=O)[C@H](CC(C)C)NC(=O)[C@H](CC(C)C)NC(=O)[C@@H](N)C(C)C)[C@@H](C)O)CSSC[C@H](NC(=O)[C@H](CC(N)=O)NC(=O)[C@H](CC(C)C)NC1=O)C(=O)N[C@H](C(=O)N[C@@H](C)C(=O)N[C@@H](CCCCN)C(=O)O)CSSC[C@H](NC(=O)[C@H](C)NC(=O)CNC(=O)[C@H](C)NC(=O)[C@H](CCCN=C(N)N)NC3=O)C(=O)N1CCC[C@H]1C(=O)N1CCC[C@H]1C(=O)N[C@@H]([C@@H](C)O)C(=O)N[C@@H](Cc1ccccc1)C(=O)N[C@@H](C)C(=O)N[C@@H](C)C(=O)N[C@@H](CO)C(=O)NCC(=O)N[C@@H](CO)C(=O)N2` [VLLFLFQAAPGSADAPFADTAACRSQGNFCRAGACPPTFAASGSCHGGLLNCCAK], for which the MIC in assay [35] was 14.4 µM; in assay [36], at least 73.2 µM; in assay [37], 0.97 µM; with Escherichia coli BL21 it was at least 57.4 µM; in [38], 3.66 µM.
